Literature values in patent publication EP3045477B1, “Method for reducing the migration of photoinitiators and their degradation products in UV curable coatings” (IOT - Innovative Oberflächentechnologien GmbH, priority 2015, dated 2016).

Settings: listed limit, Verordnung (EU) 10/2011

**Q.** For `Cc1cc(C(C)(C)C)c(O)c(C(C)(C)C)c1` [Butylhydroxy toluol, Butylhydroxytoluol], which “spezifische Migrationslimit” value is on record?
**A.** Its value is 3 mg/kg.
